Values of other authors, collected in PubChem BioAssay AID1259410 (Chemical Carcinogenesis Research Information System (CCRIS), 2018).

Tested on: rodent tumor promotion studies, tumor incidence
Assay: CCRIS tumor promotion studies

In the case of `COc1cccc(O)c1O`, the outcome (Carcinogen: DIETHYLNITROSAMINE, 55-18-5, N-METHYL-N-NITROSOUREA, 684-93-5, 1,2-DIMETHYLHYDRAZINE, 540-73-8, N-BUTYL-N-(4-HYDRO, Carcinogen: DIETHYLNITROSAMINE, 55-18-5, N-METHYL-N-NITROSOUREA, 684-93-5, 1,2-DIMETHYLHYDRAZINE, 540-73-8, N-BUTYL-N-(4-HYDRO, Doses [Carcinogen]: 100 MG/KG BW DEN ONCE THEN 20 MG/KG BW MNU 1/D FOR 4 D FOLLOWED BY 40 MG/KG BW DMH 1/D FOR 4 D, 0.05% BHBN IN DRINKING W, Doses [Promoter]: 0, 2% IN DIET FOR 24 WK BEGINNING 3 D POST CARCINOGEN TREATMENT (STUDY DURATION: 28 WK), Route [Carcinogen]: INTRAPERITONEAL, INTRAPERITONEAL, SUBCUTANEOUS, ORAL, Route [Carcinogen]: INTRAPERITONEAL, INTRAPERITONEAL, SUBCUTANEOUS, ORAL, Route [Promoter]: ORAL, Species: RAT, Strain/Sex: F344/MALE) is listed as “forestomach: papilloma, squamous cell carcinoma or carcinoma in situ; glandular”.

For `O=C1c2c(O)cccc2Cc2cccc(O)c21`, the outcome (Carcinogen: 7,12-DIMETHYLBENZ(A)ANTHRACENE, Doses [Carcinogen]: TOP, Route [Carcinogen]: DERMAL, Route [Promoter]: DERMAL, Species: MOUSE, Strain/Sex: MALE,FEMALE) is listed as “integumentary system (skin)”.

For `CN(C)c1ncnc2nc[nH]c12`, the outcome (Carcinogen: DIETHYLNITROSAMINE, 55-18-5, 2-ACETYLAMINOFLUORENE, 53-96-3, CARBON TETRACHLORIDE, 56-23-5, Carcinogen: DIETHYLNITROSAMINE, 55-18-5, 2-ACETYLAMINOFLUORENE, 53-96-3, CARBON TETRACHLORIDE, 56-23-5, Doses [Carcinogen]: 200 MG/KG BW ONCE FOLLOWED 2 WK LATER BY 0.03% 2-ACETYLAMINOFLUORENE IN DIET FOR 2 WK PLUS 2 ML/KG CARBON TETRACHLORIDE, Doses [Promoter]: 0, 0.015% IN DIET FOR 21 WK BEGINNING AT END OF INITIATION PHASE (STUDY DURATION: 25 WK), Route [Carcinogen]: INTRAPERITONEAL, ORAL, Route [Carcinogen]: INTRAPERITONEAL, ORAL, Route [Promoter]: ORAL, Species: RAT, Strain/Sex: WISTAR/MALE) is listed as “liver: hepatocellular carcinoma” and the outcome (Carcinogen: DIETHYLNITROSAMINE, 55-18-5, Doses [Carcinogen]: 200 MG/KG BW ONCE, Doses [Promoter]: 0, 0.005, 0.02% IN DIET FOR 23 WK BEGINNING 2 WK POST CARCINOGEN TREATMENT (STUDY DURATION: 25 WK), Doses [Promoter]: 0, 0.005, 0.02% IN DIET FOR 23 WK BEGINNING 2 WK POST CARCINOGEN TREATMENT (STUDY DURATION: 25 WK), Route [Carcinogen]: INTRAPERITONEAL, Route [Promoter]: ORAL, Species: RAT, Strain/Sex: WISTAR/MALE) is listed as “liver: hepatocellular carcinoma”.

In the case of `CN(C)CCCN1c2ccccc2Sc2ccc(Cl)cc21`, the outcome (Carcinogen: UV IRRADIATION, Doses [Carcinogen]: 0.53 J/CM2 INCREASED BY 20% EVERY 2 WK TO 1.60 J/CM2 AND MAINTAINED AT 1.60 J/CM2 UNTIL DEATH, ADMINISTERED 5 D/WK FOR 1, Doses [Promoter]: 0, 15 UG/G BEGINNING 2 WK POST FIRST CARCINOGEN DOSE ADMINISTERED 2 HR PRIOR TO EACH CARCINOGEN DOSE (STUDY DURATION: 30, Route [Carcinogen]: DERMAL, Route [Promoter]: INTRAPERITONEAL, Species: MOUSE, Strain/Sex: SKH/HRL/FEMALE) is listed as “skin: tumor”.

For `Clc1cc2c(cc1Cl)Oc1cc(Cl)c(Cl)cc1O2`, the outcome (Carcinogen: 7,12-DIMETHYLBENZ(A)ANTHRACENE, Doses [Carcinogen]: 0.2 UMOL, Route [Carcinogen]: DERMAL, Route [Promoter]: DERMAL, Species: MOUSE, Strain/Sex: HRS/FEMALE) is given as “integumentary system (skin): papilloma”, the outcome (Carcinogen: DIETHYLNITROSAMINE [55-18-5], Doses [Carcinogen]: 175 MG/KG BW ONCE AT 10 WK OF AGE (STUDY DURATION: 32 WK), Doses [Promoter]: 1750 NG/KG IN CORN OIL 1X/2 WK FOR 14 WK BEGINNING 18 WK POST CARCINOGEN DOSE (STUDY DURATION: 32 WK), Route [Carcinogen]: INTRAPERITONEAL, Route [Promoter]: GAVAGE, Species: RAT, Strain/Sex: SPRAGUE-DAWLEY/FEMALE) is given as “ovary: tumor” and the outcome (Carcinogen: DIETHYLNITROSAMINE [55-18-5], Doses [Carcinogen]: 175 MG/KG BW ONCE AT 10 WK OF AGE (STUDY DURATION: 32 WK), Doses [Promoter]: 1750 NG/KG IN CORN OIL 1X/2 WK FOR 30 WK BEGINNING 2 WK POST CARCINOGEN DOSE (STUDY DURATION: 32 WK), Route [Carcinogen]: INTRAPERITONEAL, Route [Promoter]: GAVAGE, Species: RAT, Strain/Sex: SPRAGUE-DAWLEY/FEMALE) is given as “ovary: tumor”. For the same compound, the outcome (Carcinogen: DIETHYLNITROSAMINE [55-18-5], Doses [Carcinogen]: 175 MG/KG BW ONCE AT 10 WK OF AGE (STUDY DURATION: 48 WK), Doses [Promoter]: 1750 NG/KG IN CORN OIL 1X/2 WK FOR 30 WK BEGINNING 2 WK POST CARCINOGEN DOSE (STUDY DURATION: 48 WK), Route [Carcinogen]: INTRAPERITONEAL, Route [Promoter]: GAVAGE, Species: RAT, Strain/Sex: SPRAGUE-DAWLEY/FEMALE) was “ovary: tumor”, the outcome (Carcinogen: DIETHYLNITROSAMINE [55-18-5], Doses [Carcinogen]: 175 MG/KG BW ONCE AT 10 WK OF AGE (STUDY DURATION: 48 WK), Doses [Promoter]: 1750 NG/KG IN CORN OIL 1X/2 WK FOR 30 WK BEGINNING 18 WK POST CARCINOGEN DOSE (STUDY DURATION: 48 WK), Route [Carcinogen]: INTRAPERITONEAL, Route [Promoter]: GAVAGE, Species: RAT, Strain/Sex: SPRAGUE-DAWLEY/FEMALE) was “ovary: tumor” and the outcome (Carcinogen: DIETHYLNITROSAMINE [55-18-5], Doses [Carcinogen]: 175 MG/KG BW ONCE AT 10 WK OF AGE (STUDY DURATION: 54 WK), Doses [Promoter]: 1750 NG/KG IN CORN OIL 1X/2 WK FOR 30 WK BEGINNING 18 WK POST CARCINOGEN DOSE (STUDY DURATION: 54 WK), Route [Carcinogen]: INTRAPERITONEAL, Route [Promoter]: GAVAGE, Species: RAT, Strain/Sex: SPRAGUE-DAWLEY/FEMALE) was “ovary: tumor”. For the same compound, the outcome (Carcinogen: DIETHYLNITROSAMINE [55-18-5], Doses [Carcinogen]: 175 MG/KG BW ONCE AT 10 WK OF AGE (STUDY DURATION: 62 WK), Doses [Promoter]: 1750 NG/KG IN CORN OIL 1X/2 WK FOR 30 WK BEGINNING 2 WK POST CARCINOGEN DOSE (STUDY DURATION: 62 WK), Route [Carcinogen]: INTRAPERITONEAL, Route [Promoter]: GAVAGE, Species: RAT, Strain/Sex: SPRAGUE-DAWLEY/FEMALE) was “ovary: tumor”, the outcome (Carcinogen: DIETHYLNITROSAMINE [55-18-5], Doses [Carcinogen]: 175 MG/KG BW ONCE AT 10 WK OF AGE (STUDY DURATION: 62 WK), Doses [Promoter]: 1750 NG/KG IN CORN OIL 1X/2 WK FOR 60 WK BEGINNING 2 WK POST CARCINOGEN DOSE (STUDY DURATION: 62 WK), Route [Carcinogen]: INTRAPERITONEAL, Route [Promoter]: GAVAGE, Species: RAT, Strain/Sex: SPRAGUE-DAWLEY/FEMALE) was “ovary: tumor” and the outcome (Carcinogen: DIETHYLNITROSAMINE, 55-18-5, Doses [Carcinogen]: 10 MG/KG ONCE, Doses [Promoter]: 0, 150 PPT IN DIET FOR DURATION OF STUDY BEGINNING 30 D POST CARCINOGEN DOSE (STUDY DURATION: 450 D), Route [Carcinogen]: INTRAPERITONEAL, Route [Promoter]: ORAL, Species: RAT, Strain/Sex: SPRAGUE-DAWLEY/FEMALE) was “liver: adenoma or carcinoma”. For the same compound, the outcome (Carcinogen: DIETHYLNITROSAMINE, 55-18-5, Doses [Carcinogen]: 90 MG/KG BW ONCE, Doses [Promoter]: 0, 0.5 UG/KG 1/WK FOR 20 WK BEGINNING 3 WK POST CARCINOGEN DOSE (STUDY DURATION: 47 WK), Route [Carcinogen]: INTRAPERITONEAL, Route [Promoter]: INTRAPERITONEAL, Species: MOUSE, Strain/Sex: B6D2F1/MALE) was “liver: tumor”, the outcome (Carcinogen: N-NITROSODIMETHYLAMINE, 62-75-7, Doses [Carcinogen]: 25 MG/KG ONCE AT 5 WK OF AGE, Doses [Promoter]: 0, 0.05 UG/KG/WK FOR 20 WK BEGINNING 3 WK POST CARCINOGEN DOSE (STUDY DURATION: 52 WK), Route [Carcinogen]: INTRAPERITONEAL, Route [Promoter]: INTRAPERITONEAL, Species: MOUSE, Strain/Sex: SWISS/MALE) was “lung: tumor” and the outcome (Carcinogen: N-NITROSODIMETHYLAMINE, 62-75-7, Doses [Carcinogen]: 25 MG/KG ONCE AT 5 WK OF AGE, Doses [Promoter]: 0, 1.6 UG/KG ONCE 3 WK POST CARCINOGEN DOSE (STUDY DURATION: 52 WK), Route [Carcinogen]: INTRAPERITONEAL, Route [Promoter]: INTRAPERITONEAL, Species: MOUSE, Strain/Sex: SWISS/MALE) was “lung: tumor”. For the same compound, the outcome (Doses [Carcinogen]: 5 UMOL IN 50 µL ACETONE, Doses [Promoter]: 3.75, 7.5, 15, 30 NG 2/WK, Doses [Promoter]: 3.75, 7.5, 15, 30 NG 2/WK, Route [Carcinogen]: DERMAL, Route [Promoter]: DERMAL, Species: MOUSE, Strain/Sex: HRS/FEMALE) was “integumentary system (skin): papilloma”.

For `CCCCCCCCCCCC`, the outcome (Carcinogen: 7,12-DIMETHYLBENZ(A)ANTHRACENE, Doses [Carcinogen]: TOP, Route [Carcinogen]: DERMAL, Route [Promoter]: DERMAL, Species: MOUSE, Strain/Sex: FEMALE) is listed as “integumentary system (skin)”.

In the case of `[O-][Cl+3]([O-])([O-])O`, the outcome (Carcinogen: N-bis(2-hydroxypropyl)nitrosamine, 53609-64-6, Doses [Carcinogen]: 0.08 and 0.2% in drinking water for 4 wks at 7-10 wks of age, study duration to 39 wk of age, Doses [Promoter]: In utero (0.1% in diet of dams) and then in drinking water of weaned offspring for 2 wk. Dimethylbenz[a]anthracene, 57-9, Route [Carcinogen]: Oral, Route [Promoter]: In utero and in drinking water, Species: Rat, Strain/Sex: F344/Female (23, 16/group)) is given as “thyroid: no increase in tumors even though increased follicular cell hyperplasia” and the outcome (Carcinogen: N-bis(2-hydroxypropyl)nitrosamine, 53609-64-6, Doses [Carcinogen]: 0.08 and 0.2% in drinking water for 4 wks at 7-10 wks of age, study duration to 39 wk of age, Doses [Promoter]: In utero (0.1% in diet of dams) and then in drinking water of weaned offspring for 2 wk, Route [Carcinogen]: Oral, Route [Promoter]: In utero and in drinking water, Species: Rat, Strain/Sex: F344/Male (12-15/group)) is given as “none found”.
